Assay results: US8642808B2, “Bis-aryl sulfonamides” (ChemoCentryx, Inc., priority 2002, dated 2014)

Each compound was assayed on MDR1α-knockout mice (assay: in vivo efficacy study in MDR1α-knockout mice (spontaneous colitis, delay of disease onset)). Details: female MDR1α-knockout mice, 50 mg/kg twice a day intraperitoneal, 14 consecutive days.
From the text: The MDR1α-knockout mice, which lack the P-glycoprotein gene, spontaneously develop colitis under specific pathogen-free condition. The pathology in these animals has been characterized as Th1-type T cell-mediated inflammation similar to ulcerative colitis in humans. Disease normally begins to develop at around 8-10 weeks after birth. But the ages at which disease emerges and the ultimate penetrance level often vary considerably among different animal facilities.
In a study using the MDR1α-knockout mice, the known compound shown below was tested for its ability to delay disease onset during a short treatment regimen.
This compound is structurally similar to the claimed modulators (I) of the present invention. Female mice (n=15) were dosed with 50 mg/kg twice a day by intraperitonial injection, starting at age 13 weeks for 14 consecutive days. The study was terminated when the mice reached age 17 weeks at which point the disease penetrance level measured by diarrhea incidence reached 55%. […] This protection extended one to two weeks after treatment stopped (FIG. 1).
For COc1ccc(S(=O)(=O)Nc2ccc(Cl)cc2C(=O)c2ccccc2)cc1 [drawing 79], the “duration of protection after treatment stopped” value was “one to two”.

Same assay, conditions: female MDR1α-knockout mice, 50 mg/kg twice a day intraperitoneal, 14 consecutive days from age 13 weeks
In the case of COc1ccc(S(=O)(=O)Nc2ccc(Cl)cc2C(=O)c2ccccc2)cc1 [drawing 79], the tolerability is reported as “well tolerated”.

Same assay, conditions: female MDR1α-knockout mice, 50 mg/kg twice a day intraperitoneal, 14 consecutive days from age 13 weeks; compared with vehicle
For COc1ccc(S(=O)(=O)Nc2ccc(Cl)cc2C(=O)c2ccccc2)cc1 [drawing 79], the “onset of IBD symptoms (diarrhea incidence)” value was “significant delay in the onset of IBD symptoms”.

These compounds were tested against T1, CCR9 (Homo sapiens, UniProt P51686) (assay: chemotaxis (conventional migration) assay and/or calcium mobilization (calcium flux) assay, TECK-stimulated MOLT-4 cells). Details: TECK-induced migration and/or calcium signal, read-out: activity (IC50) in either or both of the chemotaxis assay and calcium mobilization assays.
T1 construct: CCR9-expressing cells (such as a T cell line MOLT-4 cells); host or cells: MOLT-4
T1 sequence (P51686 1-369): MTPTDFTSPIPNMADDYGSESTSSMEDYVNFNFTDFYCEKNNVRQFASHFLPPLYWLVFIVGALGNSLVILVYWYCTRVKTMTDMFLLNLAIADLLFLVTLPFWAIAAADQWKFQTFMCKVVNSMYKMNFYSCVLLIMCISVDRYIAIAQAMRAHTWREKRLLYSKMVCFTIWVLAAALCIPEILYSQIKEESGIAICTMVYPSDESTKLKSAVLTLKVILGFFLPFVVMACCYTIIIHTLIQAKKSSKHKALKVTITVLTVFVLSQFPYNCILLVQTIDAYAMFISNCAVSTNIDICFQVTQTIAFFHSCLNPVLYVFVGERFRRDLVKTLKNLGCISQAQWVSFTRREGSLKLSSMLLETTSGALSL
Type: cell-based
Procedure: MOLT-4 cells were obtained from the American Type Culture Collection (Manassas, Va.) and cultured in RPMI tissue culture medium supplemented with 10% fetal calf serum (FCS) in a humidified 5% CO2 incubator at 37° C. Recombinant human chemokine protein TECK was obtained from R&D Systems (Minneapolis, Minn.). ChemoTX® chemotaxis microchambers were purchased from Neuro Probe (Gaithersburg, Md.). CyQUANT® cell proliferation kits were purchased from Molecular Probes (Eugene, Oreg.). Calcium indicator dye Fluo-4 AM was purchased from Molecular Devices (Mountain View, Calif.).
Conventional migration assay was used to determine the efficacy of potential receptor antagonists in blocking migration mediated through CCR9. This assay was routinely performed using the ChemoTX® microchamber system with a 5-μm pore-sized polycarbonate membrane. To begin such an assay, MOLT-4 cells were harvested by centrifugation of cell suspension at 1000 PRM on a GS-6R Beckman centrifuge. The cell pellet was resuspended in chemotaxis buffer (HBSS with 0.1% BSA) at 5×10^6 cells/mL. Test compounds at desired concentrations were prepared from 10 mM stock solutions by serial dilutions in chemotaxis buffer. An equal volume of cells and compounds were mixed and incubated at room temperature for 15 minutes. Afterwards, 20 μL of the mixture was transferred onto the porous membrane of a migration microchamber, with 29 μL of 50 nM chemokine TECK protein placed at the lower chamber. Following a 150-minute incubation at 37° C., during which cells migrated against the chemokine gradient, the assay was terminated by removing the cell drops from atop the filter. To quantify cells migrated across the membrane, 5 μL of 7X CyQUANT® solution was added to each well in the lower chamber, and the fluorescence signal measured on a Spectrafluor Plus fluorescence plate reader (TECAN, Durham, N.C.). The degree of inhibition was determined by comparing migration signals between compound-treated and untreated cells. IC50 calculation was further performed by non-linear squares regression analysis using Graphpad Prism (Graphpad Software, San Diego, Calif.).
Calcium flux assay measures an increase in intracellular calcium following ligand-induced receptor activation. In the screen of CCR9 antagonists, it was used as a secondary assay carried out on a FLIPR® machine (Molecular Devices, Mountain View, Calif.). To begin an assay, MOLT-4 cells were harvested by centrifugation of cell suspension, and resuspended to 1.5×10^6 cells/mL in HBSS (with 1% fetal calf serum). Cells were then labeled with a calcium indicator dye Fluo-4 AM for 45 minutes at 37° C. with gentle shaking. Following incubation, cells were pelletted, washed once with HBSS and resuspended in the same buffer at a density of 1.6×10^6 cells/mL. One hundred microliters of labeled cells were mixed with […] of test compound at the appropriate concentrations on an assay plate. Chemokine protein TECK was added at a final concentration of 25 nM to activate the receptor. The degree of inhibition was determined by comparing calcium signals between compound-treated and untreated cells. IC50 calculations were further performed by non-linear squares regression analysis using Graphpad Prism (Graphpad Software, San Diego, Calif.).
In the table below, structures and activity are provided for representative compounds described herein. Activity is provided as follows for either or both of the chemotaxis assay and/or calcium mobilization assays, described above: + 1000 nM<IC50<10000 nM; ++, 100 nM<IC50<1000 nM; and +++, IC50<100 nM.
Compound COc1cccc(S(=O)(=O)Nc2ccc(Cl)cc2C(=O)c2ccccc2)c1 has an IC50 of 1000 to 10000 nM. For O=C(c1ccccc1)c1cc(Br)ccc1NS(=O)(=O)c1ccc(-c2cocn2)cc1, the IC50 was less than 100 nM. O=C(c1ccccc1)c1cc(Cl)ccc1NS(=O)(=O)c1ccc(-n2cccn2)cc1 was tested, and the IC50 was 100 to 1000 nM. CS(=O)(=O)c1ccc(S(=O)(=O)Nc2ccc(Cl)cc2C(=O)c2ccccc2)cc1 was tested, and the IC50 was less than 100 nM. COc1ccc(S(=O)(=O)Nc2ccc(OC)cc2C(=O)c2ccccc2)cc1 showed an IC50 of 1000 to 10000 nM. COc1ccc(S(=O)(=O)Nc2cc(Br)ccc2C(=O)c2ccccc2)cc1 was tested, and the IC50 was 100 to 1000 nM. Work on O=C(c1ccccc1)c1cc(Cl)ccc1NS(=O)(=O)c1ccc(F)cc1 yielded an IC50 of 100 to 1000 nM. With CCCCOc1ccc(S(=O)(=O)Nc2ccc(Cl)cc2C(=O)c2ccccc2)cc1 the IC50 was 1000 to 10000 nM. For O=C(c1ccccc1)c1cc(Cl)ccc1NS(=O)(=O)c1ccc2c(c1)CCO2, the IC50 was 100 to 1000 nM. For O=C(c1ccccc1)c1cc(Cl)ccc1NS(=O)(=O)c1ccc(Nc2cccnc2)cc1, the IC50 was 100 to 1000 nM. With O=C(c1ccccc1)c1cc(Cl)ccc1NS(=O)(=O)c1ccc(C#Cc2ccccc2)cc1 the IC50 was 100 to 1000 nM. CC(C)c1ccc(S(=O)(=O)Nc2ccc(Cl)cc2C(=O)c2ccccc2)cc1 was tested, and the IC50 was 100 to 1000 nM. For O=C(c1ccccc1)c1cc(Cl)ccc1NS(=O)(=O)c1ccc(Br)cc1, the IC50 was 100 to 1000 nM. For CCc1ccc(S(=O)(=O)Nc2ccc(Cl)cc2C(=O)c2ccccc2)cc1, the IC50 was less than 100 nM. COC(=O)CCc1ccc(S(=O)(=O)Nc2ccc(Cl)cc2C(=O)c2ccccc2)cc1 showed an IC50 of less than 100 nM. O=C(c1ccccc1)c1cc(Cl)ccc1NS(=O)(=O)c1ccc(-c2cnco2)cc1 showed an IC50 of less than 100 nM. Work on O=C(c1ccccc1)c1cc(Cl)ccc1NS(=O)(=O)c1ccccc1F yielded an IC50 of 1000 to 10000 nM. Compound O=C(c1ccccc1)c1cc(Cl)ccc1NS(=O)(=O)c1cccc(F)c1 has an IC50 of 100 to 1000 nM. For CC(C)(C)c1ccc(S(=O)(=O)Nc2cc(Cl)ccc2C(=O)c2ccccc2)cc1, the IC50 was less than 100 nM. In the case of CC(=O)c1ccc(S(=O)(=O)Nc2ccc(Br)cc2C(=O)c2ccccc2)cc1, the IC50 is reported as less than 100 nM. O=C(c1ccccc1)c1cc(Cl)ccc1NS(=O)(=O)c1ccc(Cl)c(Cl)c1 showed an IC50 of 1000 to 10000 nM. O=C(c1ccccc1)c1cc(Cl)ccc1NS(=O)(=O)c1ccc(C(F)(F)F)cc1 was tested, and the IC50 was less than 100 nM. CCCCc1ccc(S(=O)(=O)Nc2ccc(Cl)cc2C(=O)c2ccccc2)cc1 gave an IC50 of 100 to 1000 nM. N#Cc1cccc(S(=O)(=O)Nc2ccc(Cl)cc2C(=O)c2ccccc2)c1 showed an IC50 of 100 to 1000 nM. For CC(=O)Nc1ccc(S(=O)(=O)Nc2ccc(Cl)cc2C(=O)c2ccccc2)cc1, the IC50 was 100 to 1000 nM. Compound O=C(c1ccccc1)c1cc(Cl)ccc1NS(=O)(=O)c1ccc(OC(F)(F)F)cc1 has an IC50 of less than 100 nM. In the case of COc1ccc(S(=O)(=O)Nc2ccc(Cl)cc2C(=O)c2ccccc2)cc1 [drawing 93], the IC50 is reported as less than 100 nM. For CCC(C)(C)c1ccc(S(=O)(=O)Nc2ccc(Cl)cc2C(=O)c2ccccc2)cc1, the IC50 was less than 100 nM. For CCc1ccc(S(=O)(=O)Nc2ccc(Br)cc2C(=O)c2ccccc2)cc1, the IC50 was less than 100 nM. O=C(c1ccccc1)c1cc(Cl)ccc1NS(=O)(=O)c1ccc(I)cc1 was tested, and the IC50 was less than 100 nM. With COc1ccc(-c2ccc(S(=O)(=O)Nc3ccc(Cl)cc3C(=O)c3ccccc3)cc2)cc1 the IC50 was 1000 to 10000 nM. CC(=O)Nc1ccc(S(=O)(=O)Nc2ccc(Cl)cc2C(=O)c2ccccc2)cc1Cl was tested, and the IC50 was 100 to 1000 nM. COc1ccc(S(=O)(=O)Nc2ccc(Cl)cc2C(=O)c2ccccc2F)cc1 showed an IC50 of 1000 to 10000 nM. With CC(C)(C)c1ccc(S(=O)(=O)Nc2ccc(Br)cc2C(=O)c2ccccc2)cc1 the IC50 was less than 100 nM. O=C(c1ccccc1)c1cc(Cl)ccc1NS(=O)(=O)c1ccc(-c2cccs2)cc1 was tested, and the IC50 was 100 to 1000 nM. Work on N#Cc1ccc(S(=O)(=O)Nc2ccc(Cl)cc2C(=O)c2ccccc2)cc1 yielded an IC50 of 100 to 1000 nM. O=C(c1ccccc1)c1cc(Cl)ccc1NS(=O)(=O)c1ccc(Cl)cc1Cl showed an IC50 of 1000 to 10000 nM. CC(=O)c1ccc(S(=O)(=O)Nc2ccc(Cl)cc2C(=O)c2ccccc2)cc1 was tested, and the IC50 was less than 100 nM. COc1ccc(S(=O)(=O)Nc2ccc(Br)cc2C(=O)c2ccccc2)cc1 was tested, and the IC50 was less than 100 nM. Work on O=C(c1ccccc1)c1cc(Cl)ccc1NS(=O)(=O)c1cccc(C(F)(F)F)c1 yielded an IC50 of 1000 to 10000 nM. C=Cc1ccc(S(=O)(=O)Nc2ccc(Cl)cc2C(=O)c2ccccc2)cc1 gave an IC50 of less than 100 nM. Work on COc1ccc(OC)c(S(=O)(=O)Nc2ccc(Cl)cc2C(=O)c2ccccc2)c1 yielded an IC50 of 1000 to 10000 nM. COc1ccc(S(=O)(=O)Nc2ccc(F)cc2C(=O)c2ccccc2)cc1 showed an IC50 of less than 100 nM. In the case of CC(C)Oc1ccc(S(=O)(=O)Nc2ccc(Cl)cc2C(=O)c2ccccc2)cc1, the IC50 is reported as less than 100 nM. Compound CC(C)(C)c1ccc(S(=O)(=O)Nc2ccc(Cl)cc2C(=O)c2ccccc2)cc1 has an IC50 of less than 100 nM. Work on CC(C)(C)c1ccc(S(=O)(=O)Nc2ccc(Cl)cc2C(=O)c2ccc(F)cc2)cc1 yielded an IC50 of 100 to 1000 nM.
